These results are taken from patent US7094789B2, “5-substituted isoquinoline derivatives” (Asahi Kasei Pharma Corporation, priority 2002, dated 2006).

Counter-ions that a name gives are not always drawn.

The subject of one test is intraocular pressure. The test can be described thus: Intraocular pressure reducing action (Test Example 4). The test is classed as in vivo, Japanese white rabbit. Particulars: for intraocular pressure reducing activity: result in words, rabbit; for inhibition in vivo at 1 %, 50 µL: Oryctolagus cuniculus, topical, 1% aqueous solution, 50 μl dropped to the left eye, after 2 hours, read-out: Intraocular pressure reducing action (reduction ratio) (%). As for the experimental part: A Japanese white rabbit having a body weight of about 2 kg was placed in a positioner and naturalized for one week before the experiment. An ophthalmologic local anesthesant (Benoxil) was administered to the left eye, and then intraocular pressure was measured by using a tonometer (Classic 30, Solan). The initial value of the intraocular pressure was measured, then 50 μl of a test compound (1% aqueous solution) was dropped to the left eye, and after 2 hours, the intraocular pressure was measured. The intraocular pressure reducing action of the test compounds is shown in Table 7 mentioned below as ratios (%) of reduction of intraocular pressure based on the initial value of the intraocular pressure.

For test [1], the system named is thoracic aorta constricted with phenylephrine. The test is described as follows: Vasoconstriction inhibitory action (Test Example 2). Also on record: species or system Rats (Wistar). As to conditions: result in words; rat thoracic aorta, phenylephrine. An excerpt: Rats (Wistar, 11-week old) were bleeded to death and laparotomized to take out the thoracic aorta. That aorta was cut into a ring of a length of about 3 mm in a conventional manner (Asano, T., et al., J. Pharmacol. Exp. Ther., 241, pp. 1033–1040 (1987)) and hung in 10-ml organ bath filled with Krebs-Hensright nutrient solution bubbled with a mixed gas of 95% O2 and 5% CO2. One end of the blood vessel was connected to an isometric transducer (FD Pickup TB-912T, Nihon Kohden) and applied with 2.5 g of resting tension, and constriction and relaxation reactions of the aorta were recorded. The aorta was constricted with phenylephrine (1 μM, Sigma) and then added with a test compound (1 μM), and the vasoconstriction inhibitory action thereof was observed. The vasoconstriction inhibitory actions of the test compounds are shown in Table 6 mentioned below as the relaxation ratios, which are based on the vasoconstriction with phenylephrine immediately before the addition of the test compound taken as 100%.

As for `Cl.N[C@H]1CC[C@H](Oc2cccc3cnccc23)CC1` [Example 135, Trans-4-[(5-isoquinolyl)oxy]cyclohexylamine hydrochloride], the “intraocular pressure reducing activity” value in the test with intraocular pressure is “significant intraocular pressure reducing activity”.

With `CCc1cncc2cccc(NC3CCNCC3)c12.Cl` [Example 113, 4-(4-Ethyl-5-isoquinolyl)aminopiperidine hydrochloride], the “intraocular pressure reducing activity” value in the test with intraocular pressure is “significant intraocular pressure reducing activity”. The vasoconstriction inhibitory action result in test [1] is “significant vasoconstriction inhibitory action”.

For `N[C@H]1CC[C@H](Nc2cccc3cnccc23)CC1` [Example 24, Trans-N-(5-isoquinolyl)-1,4-cyclohexanediamine hydrochloride], in the test with intraocular pressure, the inhibition in vivo at 1 %, 50 µL came to 35.7%. For the compound `Cl.NC1CCC(Nc2cccc3cncc(Br)c23)CC1` (centres unmarked) [Example 107, N-(4-Bromo-5-isoquinolyl)-1,4-cyclohexanediamine hydrochloride], the “intraocular pressure reducing activity” value in the test on intraocular pressure is “significant intraocular pressure reducing activity”. Turning to `Cl.NCCCN(CCS(=O)(=O)c1ccccc1)S(=O)(=O)c1cccc2c(O)nccc12` [Example 13, N-[(1-Hydroxy-5-isoquinolyl)sulfonyl]-N-[2-(phenylsulfonyl)ethyl]-1,3-propylenediamine hydrochloride], the vasoconstriction inhibitory action result in test [1] is on record as “significant vasoconstriction inhibitory action”. As for `Cc1cncc2cccc(OC3CCNCC3)c12.Cl` [Example 139, 4-[(4-Methyl-5-isoquinolyl)oxy]piperidine hydrochloride], the “intraocular pressure reducing activity” value in the test with intraocular pressure is on record as “significant intraocular pressure reducing activity”. Also, the vasoconstriction inhibitory action result in test [1] was “significant vasoconstriction inhibitory action”. For `C=Cc1cncc2cccc(O[C@H]3CC[C@H](N)CC3)c12.Cl` [Example 136, Trans-4-[(4-vinyl-5-isoquinolyl)oxy]cyclohexylamine hydrochloride], the “intraocular pressure reducing activity” value in the test on intraocular pressure is “significant intraocular pressure reducing activity”. The vasoconstriction inhibitory action entry in test [1] is “significant vasoconstriction inhibitory action”. Turning to `Cc1cncc2cccc(S(=O)(=O)N(CCCN)CCCc3ccccc3)c12.Cl` [Example 5, N-[(4-Methyl-5-isoquinolyl)sulfonyl]-N-(3-phenylpropyl)-1,3-propylenediamine hydrochloride], the vasoconstriction inhibitory action entry in test [1] is given as “significant vasoconstriction inhibitory action”.

With `Cl.OCCCN1CCC(Nc2cccc3cnccc23)CC1` [Example 145, 1-(3-Hydroxypropyl)-4-(5-isoquinolyl)aminopiperidine hydrochloride], the “intraocular pressure reducing activity” value with intraocular pressure is given as “significant intraocular pressure reducing activity”. Turning to `Cl.N#Cc1cncc2cccc(O[C@H]3CC[C@H](N)CC3)c12` [Example 134, Trans-4-[(4-cyano-5-isoquinolyl)oxy]cyclohexylamine hydrochloride], the “intraocular pressure reducing activity” value in the test on intraocular pressure is given as “significant intraocular pressure reducing activity”. Besides, in test [1], the vasoconstriction inhibitory action result is “significant vasoconstriction inhibitory action”. For `Cl.Oc1nccc2c(NC3CCNCC3)cccc12` [Example 115, 4-(1-Hydroxy-5-isoquinolyl)aminopiperidine hydrochloride], the “intraocular pressure reducing activity” value in the test with intraocular pressure was “significant intraocular pressure reducing activity”. Turning to `CSc1cncc2cccc(NC3CCNCC3)c12.Cl` [Example 105, 4-(4-Methylthio-5-isoquinolyl)aminopiperidine hydrochloride], the inhibition in vivo at 1 %, 50 µL with intraocular pressure amounted to 18.8%. Further, the vasoconstriction inhibitory action result in test [1] is “significant vasoconstriction inhibitory action”.
